What was measured:
HT1080 cells [1] = assay: FBS-directed migration of HT1080 cells in Boyden chambers; assay type: cell-based, human; settings: 10 nM peptide, 10% FBS, 4 hrs
Protocol: FIG. 4 Retro-inverso peptides inhibit FBS-directed migration of HT1080 cells in a dose dependent manner (Example 4).
To assess whether retro-inverso peptides exert some effect on directional cell migration, HT1080 cells were allowed to migrate for 4 hrs in Boyden chambers toward serum-free medium (CTRL), 10% FBS (None) or 10% FBS mixed with peptides, each tested at 10 nM concentration. For quantitative analysis, the basal values assessed in the absence of FBS (CTRL) was taken as 100% and all values were reported relative to that. Data are the means±SD of two independent experiments, performed in triplicate. Statistical significance calculated against None with *p<0.01, **p<0.001 (A). All retro-inverso peptides caused a reduction of FBS-directed cell migration although to different extent. Peptides RI-1, RI-2, RI-3, RI-4 and RI-5 reduced by 49%, 46%, 65%, 9% and 6%, respectively, the extent of FBS-directed cell migration. Similar results were obtained when, HT1080 cell migration was monitored in real time for 18 hrs at 37° C., 5% CO2 by the xCELLigence system. Data represent mean±SD from a quadruplicate experiment representative of 2 replicates (B). Then, HT1080 cells were allowed to migrate in Boyden chambers toward 10% FBS plus increasing concentrations of RI-3, and data were expressed as a percentage of cells migrated toward FBS alone (100%) Inhibitory effect of RI-3 is dose-dependent, it starts in the high fM range, it seems to level off in the nM range and reaches an overall 50% reduction at 1×10^−13M (C).

HT1080 cells [2] = assay: FBS-directed matrigel invasion of HT1080 cells (xCELLigence RTCA); assay type: cell-based, human; settings: 10 nM peptide, growth medium, 20 hrs
Source text: FIG. 5 Peptides RI-1, RI-2, RI-3, RI-4 and RI-5 reduced by 33%, 35%, 81%, 52% and 11%, respectively, the extent of FBS-directed matrigel invasion of HT1080 cells (A), as assessed in real time using the xCELLigence RTCA technology. The inhibitory effect of RI-3 is dose-dependent (B) (Example 5).
Cell migration is a prerequisite for cancer invasion. Therefore, we investigated whether retro-inverso peptides prevent matrigel invasion of HT1080 cells using the xCELLigence RTCA technology. Cells were seeded on polymerized matrigel and lower chambers were filled with DMEM (CTRL), growth medium (None) or growth medium with 10 nM the indicated peptides (A), or with increasing concentrations of RI-3 (B). Matrigel invasion was monitored in real time for 20 (A) or 18 (B) hrs at 37° C., 5% CO2 and the impedance values were automatically monitored as changes in cell index. Data represent means±SD from quadruplicate experiments, each representative of 2 replicates. HT1080 cells were able to cross matrigel in the presence of 10% FBS. All retro-inverso peptides caused a reduction of FBS-directed cell migration although to different extent.

sarcoma cell = settings: mouse model of lung colonization; cited from earlier work
[3] = tested on: human fibrosarcoma HT1080 cells; assay: Migration of HT1080 cells toward the peptides as chemoattractant (xCELLigence RTCA); assay type: cell-based; settings: 10 nM peptide as chemoattractant, 18 hrs, cell index
Source text: Cell index due to the adhesion of migrating cells to microelectrodes are reported in (A); analysis of slopes representing the change rate of cell index generated in the time range 0-12 hr are reported in (B).
We assessed whether new generated retro-inverso peptides elicit themselves cell migration of human fibrosarcoma HT1080 cells. […] The results are depicted in FIG. 2. Data represent mean±SD from a quadruplicate experiment representative of 2 replicates (A).

Substance | reduction of the extent of FBS-directed cell migration (HT1080 cells [1]) [%] | reduction of the extent of FBS-directed cell invasion (matrigel) (HT1080 cells [2]) [%] | inhibition of sarcoma cell invasion (sarcoma cell) | cell migration triggered by the peptide [3]
3-phenylpropionyl-D-Arg-Aib-D-Arg-NH2 [RI-5] | 6 | 11 |  | 
Ac-(D)-Tyr-(D)-Arg-(D)-Glu-(D)-Arg-NH2 [RI-1] | 49 | 33 |  | 
Ac-(D)-Tyr-(D)-Arg-(D)-Ser-(D)-Arg-NH2 [RI-2] | 46 | 35 |  | 
Ac-L-Arg-Aib-L-Arg-D-Cα(Me)Phe-NH2 [UPARANT] |  |  | does not inhibit sarcoma cell invasion | 
N-formyl-methionyl-leucyl-phenylalanine peptide [fMLF] |  |  |  | elicited a considerable cell migration
Phenylacetyl-D-Arg-Aib-D-Arg-NH2 [RI-4] | 9 | 52 |  | 

From patent US10836792B2, “Retro-inverso peptide inhibitors of cell migration, extracellular matrix and endothelial invasion by tumor cells” (ISTITUTO NAZIONALE TUMORI IRCCS “FONDAZIONE G. PASCALE”, priority 2016, dated 2020)
